From PMC6920357, “CETSA-based target engagement of taxanes as biomarkers for efficacy and resistance” (Scientific Reports, 2019)
Read-outs that look alike come from different tables or passages of the source. Each block holds one molecule with its values, some of them ahead of it.

Test system: T1, β-tubulin
T1 construct: gene TUBB; endogenous untagged beta-tubulin (isotypes not resolved) in microtubules with alpha-tubulin, intact human cancer cells
Test: isothermal dose response CETSA, AlphaLISA
Format: cell-based

- EC50 (intact PC346C prostate cancer cells, heated 63 °C, vinca site, read-out: EC50): 2.02 ± 0.31 µM
SMILES: CCC1=C[C@@H]2CN(C1)Cc1c([nH]c3ccccc13)[C@@](C(=O)OC)(c1cc3c(cc1OC)N(C)[C@H]1[C@@](O)(C(=O)OC)[C@H](OC(C)=O)[C@]4(CC)C=CCN5CC[C@]31[C@@H]54)C2 [vinorelbine]

- EC50 (intact K562-P cells, 1 h 45 min at 37 °C, heated 63 °C 3 min, no tariquidar, taxane site, read-out: EC50): 0.3 ± 0.08 µM
SMILES: CC(=O)O[C@@]12CO[C@@H]1C[C@H](O)[C@@]1(C)C(=O)[C@H](O)C3=C(C)[C@@H](OC(=O)[C@H](O)[C@@H](NC(=O)OC(C)(C)C)c4ccccc4)C[C@@](O)([C@@H](OC(=O)c4ccccc4)[C@H]21)C3(C)C [docetaxel]

- EC50: 1.55 ± 0.3 µM
SMILES: CC(=O)O[C@H]1C(=O)[C@@]2(C)[C@H]([C@H](OC(=O)c3ccccc3)[C@]3(O)C[C@H](OC(=O)[C@H](O)[C@@H](NC(=O)c4ccccc4)c4ccccc4)C(C)=C1C3(C)C)[C@]1(OC(C)=O)CO[C@@H]1C[C@@H]2O [paclitaxel]
